# Biological target: T1, soluble guanylate cyclase (sGC), α1 and β1 subunits of guanylate cyclase expressed in Sf9 cells (Homo sapiens, UniProt Q02108+Q02153)
# T1 construct: made in house; host or cells: Sf9 insect cells (baculovirus co-infection)
# T1 sequence (Q02108 1-690): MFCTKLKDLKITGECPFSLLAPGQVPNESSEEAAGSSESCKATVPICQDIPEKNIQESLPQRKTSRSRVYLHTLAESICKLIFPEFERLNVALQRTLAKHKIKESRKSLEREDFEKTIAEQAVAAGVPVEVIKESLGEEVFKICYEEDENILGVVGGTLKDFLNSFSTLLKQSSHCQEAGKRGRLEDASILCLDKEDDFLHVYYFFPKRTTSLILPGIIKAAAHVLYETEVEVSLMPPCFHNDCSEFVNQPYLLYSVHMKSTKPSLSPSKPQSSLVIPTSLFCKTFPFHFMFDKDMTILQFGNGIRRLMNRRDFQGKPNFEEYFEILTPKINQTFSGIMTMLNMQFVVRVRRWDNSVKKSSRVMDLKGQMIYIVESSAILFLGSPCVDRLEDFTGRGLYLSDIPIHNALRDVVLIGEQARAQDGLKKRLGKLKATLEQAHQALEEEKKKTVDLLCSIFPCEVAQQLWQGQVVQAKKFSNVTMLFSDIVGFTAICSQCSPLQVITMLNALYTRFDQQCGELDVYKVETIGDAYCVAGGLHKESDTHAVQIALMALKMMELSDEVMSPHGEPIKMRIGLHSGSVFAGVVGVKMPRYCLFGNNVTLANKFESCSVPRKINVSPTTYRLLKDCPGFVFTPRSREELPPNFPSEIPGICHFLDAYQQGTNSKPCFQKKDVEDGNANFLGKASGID
# T1 sequence (Q02153 1-619): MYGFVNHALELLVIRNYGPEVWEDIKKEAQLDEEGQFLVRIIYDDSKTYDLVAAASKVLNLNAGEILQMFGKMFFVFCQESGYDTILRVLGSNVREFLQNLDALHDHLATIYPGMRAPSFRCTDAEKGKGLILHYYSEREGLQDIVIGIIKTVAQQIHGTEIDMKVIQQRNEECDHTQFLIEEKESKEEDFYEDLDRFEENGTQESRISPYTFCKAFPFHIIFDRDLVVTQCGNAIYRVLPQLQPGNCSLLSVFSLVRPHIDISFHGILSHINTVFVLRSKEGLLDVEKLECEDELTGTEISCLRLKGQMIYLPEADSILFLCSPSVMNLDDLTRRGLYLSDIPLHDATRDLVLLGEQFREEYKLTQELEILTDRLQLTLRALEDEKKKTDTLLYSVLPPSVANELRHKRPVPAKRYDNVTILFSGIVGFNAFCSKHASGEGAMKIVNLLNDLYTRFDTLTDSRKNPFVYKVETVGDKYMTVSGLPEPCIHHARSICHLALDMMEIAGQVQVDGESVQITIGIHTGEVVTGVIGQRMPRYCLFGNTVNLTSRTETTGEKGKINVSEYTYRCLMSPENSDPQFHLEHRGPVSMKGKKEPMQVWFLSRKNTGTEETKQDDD
# Experiment: Guanylate cyclase assay (formation of cyclic GMP from GTP)
# Assay type: biochemical
# Conditions: for Mean efficacy of compound combined with 1 μM of SNP, [%]: compound at 100 μM with 1 μM sodium nitro prusside (SNP); for Mean efficacy of compound combined with 1 μM of SNP, [%] / Emax at 100 µM: normalized with the activity of 100 μM YC-1 (without SNP) as 100%; for Emax at 100 µM: compound at 100 μM without SNP, read-out: Mean basal efficacy of compound alone at 100 μM, [%]; for Mean activation at 100 μM: (activity of compound at 100 μM with 1 μM SNP)−(activity of compound at 100 μM)/(activity of SNP at 1 μM)−(basal activity of sGC)
# Protocol: Sf9 cells were cultured in Sf-90011 medium supplemented with 10% (v/v) fetal calf serum at 28° C. to give a count of 6×10^5 cells/ml. The cells were then infected with a mixture of the virus stocks for the α1 and β1 subunits of guanylate cyclase at a multiplicity of infection of 0.1 pfu/cell. The cells were harvested 72 hours after infection and were pelleted by centrifugation. The resulting cell pellets were homogenized with Polytron homogenizer in 3 volumes of 20 mM Tris-HCl (pH 7.6) containing 1 mM EDTA, 5 mM dithiothreitol, 90 mM NaCl, 10% glycerol, and protease inhibitors mix (Roche Molecular Biochemicals). The homogenate was centrifuged at 50,000×g for 60 minutes and the supernatant was aliquotted and stored at −80° C.
# Compounds of the present invention were dissolved in DMSO to make 100 mM and saved as stocks at −20° C. When compounds were tested, prepared 10-fold concentrated solutions with 10% DMSO. Then added 10 μl of 10-fold concentrated compound solutions to the reaction mixture of total 100 μl.
# Guanylate cyclase activity was measured by the formation of cyclic GMP from GTP in a total volume of 100 μl. Guanylate cyclase-expressed Sf9 cell high-speed supernatant was used as an enzyme source for the assay. The reaction mixture containing 0.1 μl enzyme (Sf9 high-speed sup), compound solution, 50 mM Tris-HCl (pH 7.6), 4 mM MgCl2, 0.5 mM IBMX, 15 mM creatine phosphate, 20 μg creatine phosphokinase, 0.1% BSA and 1 mM GTP was incubated at 37° C. for 15 minutes. After the reaction, 0.9 ml of 50 mM sodium acetate buffer (pH 5.8) was added followed by boiling for 3 minutes to stop the reaction. The solution was centrifuged at 3000 rpm for 15 minutes at room temperature and cyclic GMP in 20 μl of the resulting supernatant was measured according to the protocol of Amersham cyclic GMP enzymeimmunoassay system (purchased from Sigma, catalogue number RPN 226).
# Compounds of the present invention were tested at 100 μM with and without 1 μM sodium nitro prusside (SNP). 1-Benzyl-3-hydroxymethyl-2-furylindazole (YC-1) was included as a standard for each assay. The data was normalized with the activity of 100 μM YC-1 (without SNP) as 100%. Mean basal efficacy, in Table 1, was expressed as a percentage of 100 μM YC-1 (without SNP).
# The mean activation, in Table 1, was calculated based on the formula: (activity of compound of the present invention at 100 μM with 1 μM SNP)−(activity of compound of the present invention at 100 μM)/(activity of SNP at 1 μM)−(basal activity of sGC).
SMILES,"Mean efficacy of compound combined with 1 μM of SNP, [%]",Emax at 100 µM,Mean activation at 100 μM
"O=C(/C=C/c1cccnc1Sc1ccc(Cl)cc1Cl)NC1CCC(O)CC1 (stereo not shown) [Example 17, (2E)-3-{2-[(2,4-dichlorophenyl)thio]-3-pyridinyl}-N-(4-hydroxycyclohexyl)acrylamide]",138%,38%,–
"O=C(/C=C/c1cccnc1Sc1ccc(Br)cc1)NC1CCC(O)CC1 (stereo not shown) [Example 18, (2E)-3-{2-[(4-bromophenyl)thio]-3-pyridinyl}-N-(4-hydroxycyclohexyl)acrylamide]",113%,43%,–
"O=C(/C=C/c1cccnc1Sc1ccccc1)NC1CCC(O)CC1 (stereo not shown) [Example 19, (2E)-N-(4-hydroxycyclohexyl)-3-[2-(phenylthio)-3-pyridinyl]acrylamide]",120%,37%,4.8
"O=C(/C=C/c1cccnc1Sc1ccccc1Cl)NC1CCC(O)CC1 (stereo not shown) [Example 20, (2E)-3-{2-[(2-chlorophenyl)thio]-3-pyridinyl}-N-(4-hydroxycyclohexyl)acrylamide]",199%,90%,6.3
"CC(C)CSc1ccccc1/C=C/C(=O)NC1CCCCC1O (stereo not shown) [Example 21, (2E)-N-(2-hydroxycyclohexyl)-3-[2-(isobutylthio)phenyl]acrylamide]",106%,45%,4.1
"O=C(/C=C/c1ccccc1SC1CCCC1)NC1CCCCC1O (stereo not shown) [Example 22, (2E)-3-[2-(cyclopentylthio)phenyl]-N-(2-hydroxycyclohexyl)acrylamide]",169%,158%,3.9
"O=C(/C=C/c1ccccc1SC1CCCCC1)NC1CCCCC1O (stereo not shown) [Example 23, (2E)-3-[2-(cyclohexylthio)phenyl]-N-(2-hydroxycyclohexyl)acrylamide]",187%,174%,2.7
"CC(C)Sc1ccccc1/C=C/C(=O)NC1CCC(O)CC1 (stereo not shown) [Example 24, (2E)-N-(4-hydroxycyclohexyl)-3-[2-(isopropylthio)phenyl]acrylamide]",17%,4%,1.6
"O=C(/C=C/c1ccccc1SC1CCCC1)NC1CCC(O)CC1 (stereo not shown) [Example 25, (2E)-3-[2-(cyclopentylthio)phenyl]-N-(4-hydroxycyclohexyl)acrylamide]",430%,242%,9.5
"O=C(/C=C/c1ccccc1SC1CCCCC1)NC1CCC(O)CC1 (stereo not shown) [Example 26, (2E)-3-[2-(cyclohexylthio)phenyl]-N-(4-hydroxycyclohexyl)acrylamide]",506%,353%,7.9
"CCCCCSc1ccccc1/C=C/C(=O)NC1CCC(O)CC1 (stereo not shown) [Example 27, (2E)-N-(4-hydroxycyclohexyl)-3-[2-(pentylthio)phenyl]acrylamide]",278%,115%,8.3
"Cc1ccc(/C=C/C(=O)NC2CCC(O)CC2)c(Sc2ccc(Cl)cc2)n1 (stereo not shown) [Example 28, (2E)-3-{2-[(4-chlorophenyl)thio]-6-methyl-3-pyridinyl}-N-(4-hydroxycyclohexyl)acrylamide]",18%,6%,2.6
